Measured values: patent publication US20220144809A1, “COMPOUNDS AND METHODS FOR THE TARGETED DEGRADATION OF ANDROGEN RECEPTOR AND ASSOCIATED METHODS OF USE” (Arvinas Operations, Inc., priority 2020, published 2022)

Tested on: Androgen Receptor (AR)
Test: Androgen Receptor ELISA assay (AR degradation in LNCaP and/or VCaP cells)
Assay type: cell-based
Conditions: degradation of AR, 5 hours incubation, R1881 in media
Description: Assay for Testing AR Degradation Driven by Compounds of the Present Disclosure.
Androgen Receptor ELISA Assay. Compounds were evaluated in the following assay in LNCaP and/or VCaP cells utilizing similar protocols. The protocols used with VCaP cells are described below. The androgen receptor ELISA assay was performed using PathScan AR Sandwich ELISA (Cell Signaling Catalog#12850) according to the following assay steps.
VCaP cells were seeded at 40,000 cells/well at a volume of 100 μL/well in VCaP assay medium [Phenol red free RPMI (Gibco Cat#11835-030); 5% Charcoal Stripped (Dextran treated) FBS (Omega Scientific, Cat#FB-04); 1% penstrep (Life Technologies, Gibco Cat#: 10378-016)] in Corning 3904 plates. The cells were grown for a minimum of 3 days.
First, cells were dosed with compounds diluted in […]—in a polypropylene plate avoiding the use of outer columns according to the following protocol: (1)(i) 1000× stock plate in DMSO was made; (ii) 20 mM stock diluted 1/6.7 with DMSO (5 μL+28.3 μL DMSO)=3 mM into row H; (iii) serial dilutions in ½ log doses (10 μL of bifunctional compound+20 μL DMSO) was performed from row H towards row B with row A being reserved for DMSO; (iv) 7 doses total (final concentration in this 1000× plate will be 3 mM, 1 mM, 333 μM, 111 μM, etc). (2)(i) A 10× stock plate in media was made; (ii) 2.5 μL of the 1000× stock was trasnferred to a new 10× stock plate (use 12 channel pipet, start at A (DMSO control) work thru H. When 247.5 μL of media was added to this plate, it served as a 10× stock; (iii) made media+1 nM R1881 for making 10× stock plate; (iv) added 247.5 μL of media with 1 nM R1881 to each well of the 10× stock plate, mix.
Then 22 μL of 10× stock was added to cells and incubated for 5 hours. 1× Cell Signaling Cell lysis buffer was made (Catalogue #9803; comes with the kit) to have […], and was kept on ice. Media was aspirated, and 100 μL 1× cell lysis buffer/well was added. The cells were placed on a shaker located in a cold room for 10 minutes and shaken at speed 7. The lysate mixture was mix and 20 μL transferred to 100 μl of Diluent in ELISA plate (0.15 μg/ml-0.075 μg/ml). The lysate-diluent mixture was store at 4° C. overnight on a shaker located in a cold room at speed 5 (gentle swirl).
The lysate-diluent mixture was shaken for 30 minutes at 37° C. The mouse AR antibody, anti-mouse antibody, TMB, and STOP solution were allowed to come to room temperature. The 1×ELISA buffer included in kit was made and loaded in reservoir. Media from the plate was discarded, the ELISA plate was tapped hard on paper towel, and washed 4×200 μl ELISA wash buffer using a plate washer for the first three washes and an eight channel aspirator for the fourth wash to more thoroughly aspirate the solution.
Next, 100 μL/well of mouse AR detection Ab was added; the plate was covered and shaken at 37° C. for 1 hour; media was discarded from the plates, the plates tapped on a paper towel and washed four times with 200 μL ELISA wash buffer with a plate washer for the first three washes and an eight channel aspirator for the fourth wash; 100 μL/well of anti-mouse—HRP conjugated Ab (comes with the kit) was added; the plates wascover and shaken at 37° C. for 30 minutes; the TMB reagent was allowed to come to room temperature; the media from the plate was discarded, the plates tapped on paper towel, and washed four times with 200 μL ELISA wash buffer with a plate washer for the first three washes and an eight channel aspirator for the fourth wash; plates were tapped on paper towl; 100 μL TMB was added to each well and the plate shaken for 2 minutes—while watching color. STOP solution (100 μL) was added when light blue color developed. The plates were shake and read at 450 nm.
Data was analyzed and plotted using GraphPad Prism software. Exemplary compounds of Table 1 were assayed and the data shown below in Table 2. […]

Structure (SMILES)	DC50	Dmax Code
N#Cc1ncc(N2C(=O)C3(CCC3)N(c3ccc(CCCCCN4CCN(c5ccc6c(c5)C(=O)N(C5CCC(=O)NC5=O)C6=O)CC4)cc3)C2=S)cc1Cl (stereo not shown) [Compound 1, 3-chloro-5-(5-(4-(5-(4-(2-(2,6-dioxopiperidin-3-yl)-1,3-dioxoisoindolin-5-yl)piperazin-1-yl)pentyl)phenyl)-8-oxo-6-thioxo-5,7-diazaspiro[3.4]octan-7-yl)picolinonitrile]	< 1 nM	A (A≥70)
Cc1c(C#N)c(-c2ccc(C#N)cc2)c(C)n1Cc1ccc(OCCN2CCC(CN3CCN(c4ccc5c(c4)C(=O)N(C4CCC(=O)NC4=O)C5=O)CC3)CC2)cc1 (stereo not shown) [Compound 20, 4-(4-cyanophenyl)-1-(4-(2-(4-((4-(2-(2,6-dioxopiperidin-3-yl)-1,3-dioxoisoindolin-5-yl)piperazin-1-yl)methyl)piperidin-1-yl)ethoxy)benzyl)-2,5-dimethyl-1H-pyrrole-3-carbonitrile]	≥ 100 nM	C (C<50)
CC(C)N(CC1CCN(Cc2ccc(-n3c(=O)n(-c4ccc(C#N)c(C(F)(F)F)c4)c4ccccc43)cc2)CC1)[C@H]1C[C@H](Oc2ccc3c(c2)C(=O)N(C2CCC(=O)NC2=O)C3=O)C1 (stereo partly shown) [Compound 15, 4-(3-(4-((4-((((1r,3r)-3-((2-(2,6-dioxopiperidin-3-yl)-1,3-dioxoisoindolin-5-yl)oxy)cyclobutyl)(isopropyl)amino)methyl)piperidin-1-yl)methyl)phenyl)-2-oxo-2,3-dihydro-1H-benzo[d]imidazol-1-yl)-2-(trifluoromethyl)benzonitrile]	1 to 10 nM	C (C<50)
CC1(C)C(=O)N(c2ccc(C#N)c(C(F)(F)F)c2)C(=S)N1Cc1ccc(OCCN2CCC(CN3CCN(c4ccc5c(c4)C(=O)N(C4CCC(=O)NC4=O)C5=O)CC3)CC2)nc1 (stereo not shown) [Compound 14, 4-(3-((6-(2-(4-((4-(2-(2,6-dioxopiperidin-3-yl)-1,3-dioxoisoindolin-5-yl)piperazin-1-yl)methyl)piperidin-1-yl)ethoxy)pyridin-3-yl)methyl)-4,4-dimethyl-5-oxo-2-thioxoimidazolidin-1-yl)-2-(trifluoromethyl)benzonitrile]	1 to 10 nM	B (50≤B<70)
CC1(C)C(=O)N(c2ccc(C#N)c(C(F)(F)F)c2)C(=S)N1Cc1ccc(N2CCC(CN3CCN(c4ccc5c(c4)C(=O)N(C4CCC(=O)NC4=O)C5=O)CC3)CC2)nc1 (stereo not shown) [Compound 3, 4-(3-((6-(4-((4-(2-(2,6-dioxopiperidin-3-yl)-1,3-dioxoisoindolin-5-yl)piperazin-1-yl)methyl)piperidin-1-yl)pyridin-3-yl)methyl)-4,4-dimethyl-5-oxo-2-thioxoimidazolidin-1-yl)-2-(trifluoromethyl)benzonitrile]	< 1 nM	A (A≥70)
CC(C)N(CC1CCN(CCCn2c(=O)n(-c3ccc(C#N)c(C(F)(F)F)c3)c3ccccc32)CC1)[C@H]1C[C@H](Oc2ccc3c(c2)C(=O)N(C2CCC(=O)NC2=O)C3=O)C1 (stereo partly shown) [Compound 23, 4-(3-(3-(4-((((1r,3r)-3-((2-(2,6-dioxopiperidin-3-yl)-1,3-dioxoisoindolin-5-yl)oxy)cyclobutyl)(isopropyl)amino)methyl)piperidin-1-yl)propyl)-2-oxo-2,3-dihydro-1H-benzo[d]imidazol-1-yl)-2-(trifluoromethyl)benzonitrile]	≥ 100 nM	C (C<50)
Cc1c(C#N)c(-c2ccc(C#N)cc2)c(C)n1Cc1ccc(OCCOCCN2CCC(CN3CCN(c4ccc5c(c4)C(=O)N(C4CCC(=O)NC4=O)C5=O)CC3)CC2)cc1 (stereo not shown) [Compound 22, 4-(4-cyanophenyl)-1-(4-(2-(2-(4-((4-(2-(2,6-dioxopiperidin-3-yl)-1,3-dioxoisoindolin-5-yl)piperazin-1-yl)methyl)piperidin-1-yl)ethoxy)ethoxy)benzyl)-2,5-dimethyl-1H-pyrrole-3-carbonitrile]	≥ 100 nM	C (C<50)
N#Cc1ccc(N2C(=O)C3(CCC3)N(c3ccc(N4CCC(CN5CCN(c6ccc7c(c6)C(=O)N(C6CCC(=O)NC6=O)C7=O)CC5)CC4)cc3)C2=S)cc1Cl (stereo not shown) [Compound 9, 2-chloro-4-(5-(4-(4-((4-(2-(2,6-dioxopiperidin-3-yl)-1,3-dioxoisoindolin-5-yl)piperazin-1-yl)methyl)piperidin-1-yl)phenyl)-8-oxo-6-thioxo-5,7-diazaspiro[3.4]octan-7-yl)benzonitrile]	1 to 10 nM	A (A≥70)
CC(C)N(CC1CCN(c2ccc(CCn3c(=O)n(-c4ccc(C#N)c(C(F)(F)F)c4)c4ccccc43)cc2)CC1)[C@H]1C[C@H](Oc2ccc3c(c2)C(=O)N(C2CCC(=O)NC2=O)C3=O)C1 (stereo partly shown) [Compound 17, 4-(3-(4-(4-((((1r,3r)-3-((2-(2,6-dioxopiperidin-3-yl)-1,3-dioxoisoindolin-5-yl)oxy)cyclobutyl)(isopropyl)amino)methyl)piperidin-1-yl)phenethyl)-2-oxo-2,3-dihydro-1H-benzo[d]imidazol-1-yl)-2-(trifluoromethyl)benzonitrile]	10 to 100 nM	C (C<50)
CC(C)N(C[C@H]1C[C@H](Oc2ccc(N3C(=S)N(c4cnc(C#N)c(C(F)(F)F)c4)C(=O)C34CCC4)cn2)C1)[C@H]1C[C@H](Oc2ccc3c(c2)C(=O)N(C2CCC(=O)NC2=O)C3=O)C1 (stereo partly drawn) [Compound 8, 5-(5-(6-((1R,3r)-3-((((1r,3R)-3-((2-(2,6-dioxopiperidin-3-yl)-1,3-dioxoisoindolin-5-yl)oxy)cyclobutyl)(isopropyl)amino)methyl)cyclobutoxy)pyridin-3-yl)-8-oxo-6-thioxo-5,7-diazaspiro[3.4]octan-7-yl)-3-(trifluoromethyl)picolinonitrile]	1 to 10 nM	C (C<50)
Cc1c(C#N)c(-c2ccc(C#N)cc2)c(C)n1Cc1ccc(N2CCC(CN3CCN(c4ccc5c(c4)C(=O)N(C4CCC(=O)NC4=O)C5=O)CC3)CC2)cc1 (stereo not shown) [Compound 18, 4-(4-cyanophenyl)-1-(4-(4-((4-(2-(2,6-dioxopiperidin-3-yl)-1,3-dioxoisoindolin-5-yl)piperazin-1-yl)methyl)piperidin-1-yl)benzyl)-2,5-dimethyl-1H-pyrrole-3-carbonitrile]	≥ 100 nM	C (C<50)
